Measurements from ChEMBL document CHEMBL1143459, “High affinity ligands for the alpha7 nicotinic receptor that show no cross-reactivity with the 5-HT3 receptor” (Bioorg Med Chem Lett, 2005).

How the values were obtained:
[1] = biological target: Serotonin 3 (5-HT3) receptor; test: Binding affinity for human 5-hydroxytryptamine 3 serotonin membrane receptor using [3H]GR-65630
[2] = biological target: Neuronal acetylcholine receptor subunit alpha-7 (Homo sapiens, UniProt P36544); test: Binding affinity towards human nicotinic acetylcholine receptor alpha 7 expressed in GH4C1 cell using [3H]methyllycaconitine; assay type: cell-based, GH4-C1
Chain of Neuronal acetylcholine receptor subunit alpha-7 (P36544 whole entry): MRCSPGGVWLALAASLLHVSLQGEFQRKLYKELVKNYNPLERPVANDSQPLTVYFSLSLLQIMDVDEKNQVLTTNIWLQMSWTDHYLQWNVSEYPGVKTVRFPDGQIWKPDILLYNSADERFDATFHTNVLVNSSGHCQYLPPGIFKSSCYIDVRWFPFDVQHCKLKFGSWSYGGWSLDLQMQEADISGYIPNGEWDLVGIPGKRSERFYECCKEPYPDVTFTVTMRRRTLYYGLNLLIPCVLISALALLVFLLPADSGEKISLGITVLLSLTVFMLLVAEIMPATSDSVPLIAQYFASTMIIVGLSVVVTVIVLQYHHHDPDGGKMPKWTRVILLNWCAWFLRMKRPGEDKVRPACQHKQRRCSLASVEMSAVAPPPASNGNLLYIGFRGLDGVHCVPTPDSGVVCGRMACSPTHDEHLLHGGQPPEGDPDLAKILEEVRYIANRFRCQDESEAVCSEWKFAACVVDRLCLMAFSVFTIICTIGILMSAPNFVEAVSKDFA

[3] = biological target: Serotonin 3 (5-HT3) receptor; test: Binding affinity towards human 5-hydroxytryptamine 3 serotonin membrane receptor using [3H]GR-65630 at 10 uM

c1cncc(CNc2cnc3c(c2)C[C@@]2(CN4CCC2CC4)O3)c1
Ki [1]: 2220 nM

O=C(NC1CN2CCC1CC2)c1ccc(-c2cccs2)s1 (stereo not given)
Ki [2]: 1.1 nM | Ki [1]: 1040 nM

COc1ccccc1-c1ccc(C(=O)NC2CN3CCC2CC3)s1 (stereo not given)
Ki [2]: 268 nM | inhibition [3]: 27%

O=C(NC1CN2CCC1CC2)c1csc(-c2ccccc2)c1 (stereo not given)
Ki [2]: 16.7 nM | Ki [1]: 409 nM

c1ccc(-c2cnc3c(c2)C[C@@]2(CN4CCC2CC4)O3)cc1
Ki [2]: 3.1 nM | Ki [1]: 73 nM

O=C(NC1CN2CCC1CC2)c1csc(-c2ccccc2)n1 (stereo not given)
Ki [2]: 121 nM | Ki [1]: 665 nM

CC(=O)O.O=C(N[C@H]1CN2CCC1CC2)c1ccc(-c2ccccc2)s1
Ki [2]: 1.8 nM | inhibition [3]: 24%

O=C(N[C@H]1CN2CCC1CC2)c1ccc(-c2ccccn2)s1
Ki [2]: 1.3 nM | inhibition [3]: 15.5%

O=C(NC1CN2CCC1CC2)c1ccc(-c2ccccn2)s1 (stereo not given)
Ki [2]: 6.9 nM | inhibition [3]: 28%

O=C(N[C@H]1CN2CCC1CC2)c1ccc(-c2ccccc2)s1 (racemic)
Ki [2]: 3.4 nM | Ki [1]: 2020 nM

O=C(N[C@@H]1CN2CCC1CC2)c1ccc(-c2ccccc2)s1
Ki [2]: 26.9 nM | Ki [1]: 1550 nM

CCN1C[C@]2(COC(=O)c3ccccc3N3C(=O)C[C@H](C)C3=O)CC[C@H](OC)[C@@]34[C@@H]5C[C@H]6[C@H](OC)[C@@H]5[C@](O)(C[C@@H]6OC)[C@](O)([C@@H](OC)[C@H]23)[C@@H]14 [METHYLLYCACONITINE]
Ki [2]: 7.3 nM | inhibition [3]: 16.5%

O=C(NC1CN2CCC1CC2)c1ccc(-c2ccccc2)s1 (stereo not given)
Ki [2]: 3.4 nM | Ki [1]: 2020 nM

O=C1NC[C@]2(CN3CCC2CC3)O1
inhibition [3]: 2.5%

O=C(NC1CN2CCC1CC2)c1ccc(-c2ccccc2Cl)s1 (stereo not given)
Ki [2]: 525 nM | inhibition [3]: 45%

O=C(NC1CN2CCC1CC2)c1cc(-c2ccccc2)sn1 (stereo not given)
Ki [2]: 4.1 nM | inhibition [3]: 28%
